ChEMBL document CHEMBL1144597, “Synthesis and evaluation of aryl thioxothiazolidinone inhibitors of ADAMTS-5 (Aggrecanase-2)” (Bioorg Med Chem Lett, 2007)

Molecular target: T1, A disintegrin and metalloproteinase with thrombospondin motifs 5 (Homo sapiens, UniProt Q9UNA0)
T1 sequence (Q9UNA0 whole entry): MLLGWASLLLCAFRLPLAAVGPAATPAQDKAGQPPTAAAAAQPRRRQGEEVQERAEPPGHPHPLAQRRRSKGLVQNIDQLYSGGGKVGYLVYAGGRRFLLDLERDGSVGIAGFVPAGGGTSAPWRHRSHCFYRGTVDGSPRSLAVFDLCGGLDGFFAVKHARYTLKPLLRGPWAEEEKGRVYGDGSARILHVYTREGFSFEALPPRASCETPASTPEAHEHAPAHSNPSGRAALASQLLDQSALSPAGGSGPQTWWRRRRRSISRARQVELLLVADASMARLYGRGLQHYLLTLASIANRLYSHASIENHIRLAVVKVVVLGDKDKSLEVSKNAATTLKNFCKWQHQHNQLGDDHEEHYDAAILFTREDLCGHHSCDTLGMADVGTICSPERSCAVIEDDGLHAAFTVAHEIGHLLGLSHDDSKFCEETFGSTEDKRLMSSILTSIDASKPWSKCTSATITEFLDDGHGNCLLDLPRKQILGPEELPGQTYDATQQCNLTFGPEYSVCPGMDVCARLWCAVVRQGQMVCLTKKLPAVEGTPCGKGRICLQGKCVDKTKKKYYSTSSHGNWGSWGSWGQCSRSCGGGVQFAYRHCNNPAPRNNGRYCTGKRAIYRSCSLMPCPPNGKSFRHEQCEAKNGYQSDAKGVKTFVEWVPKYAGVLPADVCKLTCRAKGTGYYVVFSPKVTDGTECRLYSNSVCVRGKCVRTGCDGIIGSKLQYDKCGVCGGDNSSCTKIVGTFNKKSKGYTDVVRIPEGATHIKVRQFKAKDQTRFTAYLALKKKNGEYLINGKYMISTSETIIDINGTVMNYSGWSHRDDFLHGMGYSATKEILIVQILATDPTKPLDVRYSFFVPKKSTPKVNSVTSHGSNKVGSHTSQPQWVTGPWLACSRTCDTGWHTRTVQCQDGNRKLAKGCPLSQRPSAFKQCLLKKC
Experiment: Inhibition of ADAMTS5

IC50 [µM]	Compound
1.7	CC(C)(C)c1ccc(Oc2cccc(/C=C3/SC(=S)NC3=O)c2)cc1
6.8	CC(C)(C)c1ccc(Oc2cccc(/C=C3/SC(=O)NC3=O)c2)cc1
5.3	O=C(O)CCN1C(=O)/C(=C\c2ccc(OCc3ccccc3)c(OCc3ccccc3)c2)SC1=S
14.8	Cc1ccc(Oc2cccc(/C=C3/SC(=S)NC3=O)c2)cc1
1.8	O=C1NC(=S)S/C1=C/c1ccc(OCc2ccccc2)c(OCc2ccccc2)c1
0.9	O=C(O)C(c1ccccc1)N1C(=O)/C(=C\c2ccc(OCc3ccccc3)c(OCc3ccccc3)c2)SC1=S (stereo unspecified)
3.5	COc1cc(/C=C2/SC(=S)NC2=O)ccc1OCc1ccc(Cl)cc1
1.4	O=C1NC(=S)S/C1=C/c1cc(OCc2ccccc2)cc(OCc2ccccc2)c1
6.7	O=C(O)CN1C(=O)/C(=C\c2ccc(OCc3ccccc3)c(OCc3ccccc3)c2)SC1=S
1.8	CC(C)[C@H](C(=O)O)N1C(=O)/C(=C\c2cccc(Oc3ccc(Cl)c(Cl)c3)c2)SC1=S
> 67	O=C1/C(=C\c2ccc(OCc3ccccc3)c(OCc3ccccc3)c2)SC(=S)N1Cc1ccccc1
1.1	CC(C)[C@H](C(=O)O)N1C(=O)/C(=C\c2ccc(OCc3ccccc3)c(OCc3ccccc3)c2)SC1=S
9.2	O=C1NC(=O)/C(=C\c2cccc(Oc3cc(Cl)cc(Cl)c3)c2)S1
> 22	O=C1NC(=S)S/C1=C/c1cccc(Oc2ccccc2)c1
1.3	O=C(O)[C@@H](Cc1ccccc1)N1C(=O)/C(=C\c2ccc(OCc3ccccc3)c(OCc3ccccc3)c2)SC1=S
> 67	CC(C)(C)c1ccc(Oc2cccc(/C=C3/NC(=O)NC3=O)c2)cc1
11.6	COc1ccc(COc2ccc(/C=C3/SC(=S)NC3=O)cc2OC)cc1
> 22	O=C1NC(=O)/C(=C\c2cccc(Oc3ccc(Cl)cc3)c2)S1

IC50 [µM]	Compound
> 67	O=C1/C(=C\c2ccc(OCc3ccccc3)c(OCc3ccccc3)c2)SC(=S)N1CCc1ccccc1
> 67	O=C1NC(=O)/C(=C\c2cccc(Oc3ccc(Cl)cc3)c2)N1
> 22	CN1C(=O)NC(=O)/C1=C\c1cccc(Oc2ccc(Cl)cc2)c1
16.2	COc1ccc(Oc2cccc(/C=C3/SC(=S)NC3=O)c2)cc1
> 67	O=C1/C(=C\c2ccc(OCc3ccccc3)c(OCc3ccccc3)c2)SC(=S)N1c1ccccc1
20.1	O=C1NC(=S)S/C1=C/c1cccc(OCc2ccccc2)c1
1.3	O=C(O)C(c1ccccc1)N1C(=O)/C(=C\c2cccc(Oc3ccc(Cl)c(Cl)c3)c2)SC1=S (stereo unspecified)
> 67	CCN1C(=O)/C(=C\c2ccc(OCc3ccccc3)c(OCc3ccccc3)c2)SC1=S
2.5	O=C1NC(=S)S/C1=C/c1cccc(Oc2cc(Cl)cc(Cl)c2)c1
4.9	O=C1NC(=S)S/C1=C/c1cccc(Oc2ccc(Cl)cc2)c1
5.3	O=C1NC(=S)S/C1=C/c1cccc(Oc2ccc(C(F)(F)F)cc2)c1
1.6	O=C(O)[C@@H](Cc1ccccc1)N1C(=O)/C(=C\c2cccc(Oc3ccc(Cl)c(Cl)c3)c2)SC1=S
3.2	O=C1NC(=S)S/C1=C/c1cccc(Oc2ccc(Cl)c(Cl)c2)c1
10	O=C1NC(=O)/C(=C\c2cccc(Oc3ccc(Cl)c(Cl)c3)c2)S1
11.1	O=C(O)CN1C(=O)/C(=C\c2cccc(Oc3ccc(Cl)c(Cl)c3)c2)SC1=S
> 22	COc1cc(/C=C2/SC(=S)NC2=O)ccc1OCc1ccccc1
> 67	O=C1NC(=O)/C(=C\c2cccc(Oc3cc(Cl)cc(Cl)c3)c2)N1

Compound	IC50 [µM]
CN1C(=O)/C(=C\c2ccc(OCc3ccccc3)c(OCc3ccccc3)c2)SC1=S	> 67
